From patent EP4600371A1, “CELL-FREE GLYCOSYLATION OF PEPTIDES AND PROTEINS” (ETH Zurich, priority 2024, dated 2025)

Key:
[1] = tested on: TbSTT3B; assay: Kinetic assay with ssOST enzyme: in vitro glycosylation of acceptor peptide, UPLC readout; assay type: biochemical, Trypanosoma brucei; settings: for completion of the glycosylation reaction: after an hour of incubation at room temperature, TbSTT3B
Method: In vitro glycosylation reactions were performed by mixing 50 nM purified TbSTT3A or 100 nM TbSTT3B protein, 15µM Phy-LLO or Dol20-LLO, 10 mM MnCl2, 150 mM NaCl, 20 mM HEPES pH 7.5, 0.035% DDM, 0.007% CHS and 20 µM of the acceptor peptide (for STT3A: 5CF-GSDANYTYTQ (SEQ ID No 33), for STT3B: 5CF-GSLANYTK (SEQ ID No 34)), […] 1 µL samples were taken at different time points and diluted in 10% ACN, 10 mM phosphate buffer pH 7. Samples were analyzed by reverse-phase chromatography using a UPLC Dionex UltiMate 3000 with an Accucore 150-C18 100 × 2.1 mm 2.6 µm column (Thermo Fisher Scientific)40. Peaks for glycopeptide and peptide were integrated using the Software ChromeleonTM, and the amount of produced glycopeptide was determined for each data point. Turnover rate determination was performed by fitting of the data to linear regression using PRISM software.

[2] = tested on: TbSTT3A; assay: as above; assay type: biochemical, Trypanosoma brucei; settings: compared to Dol20-PP-GlcNAc2Man5 as donor; 50 nM TbSTT3A, 15 µM LLO, 20 µM 5CF-GSDANYTYTQ, 30°C; Figure 3A
Method: In vitro glycosylation reactions were performed by mixing 50 nM purified TbSTT3A or 100 nM TbSTT3B protein, 15µM Phy-LLO or Dol20-LLO, 10 mM MnCl2, 150 mM NaCl, 20 mM HEPES pH 7.5, 0.035% DDM, 0.007% CHS and 20 µM of the acceptor peptide (for STT3A: 5CF-GSDANYTYTQ (SEQ ID No 33), for STT3B: 5CF-GSLANYTK (SEQ ID No 34)), and incubating at 30°C. 1 µL samples were taken at different time points and diluted in 10% ACN, 10 mM phosphate buffer pH 7. Samples were analyzed by reverse-phase chromatography using a UPLC Dionex UltiMate 3000 with an Accucore 150-C18 100 × 2.1 mm 2.6 µm column (Thermo Fisher Scientific)40. Peaks for glycopeptide and peptide were integrated using the Software ChromeleonTM, and the amount of produced glycopeptide was determined for each data point. Turnover rate determination was performed by fitting of the data to linear regression using PRISM software.

Substance | completion of the glycosylation reaction [1] | turnover rate of glycosylation [2] | turnover rate ([1]; compared to Dol20-PP-GlcNAc2Man9 as substrate, 100 nM TbSTT3B, 15 µM LLO, 20 µM 5CF-GSLANYTK, 30°C, Figure 3B)
Dol20-PP-GlcNAc2Man9 [reference compound] | went to completion |  | 
phy-PP-GlcNAc2Man5 |  | almost identical | 
phy-PP-GlcNAc2Man9 | went to completion |  | somewhat slower
